Holding throughout (conditions): biochemical
One assay deals with His-Brd4(44-477) (Homo sapiens (Human), UniProt O60885). In words: TR-FRET in-vitro binding assay for BRD4. The protocol: (§1) TR-FRET In-Vitro Binding Assays for BRD2, BRD3, and BRD4:
(§2) All assays were performed in 384-well microtiter plates. Each assay plate contained 8-point serial dilutions for 40 test compounds, plus 16 high- and 16 low controls. Liquid handling and incubation steps were done on an Innovadyne Nanodrop Express equipped with a robotic arm (Thermo CatX, Perkin Elmer/Caliper Twister II) and an incubator (Liconic STX40, Thermo Cytomat 2C450). The assay plates were prepared by addition of 50 nl per well of compound solution in 90% DMSO HummingBird nanodispenser (Zinsser Analytic). The assay was started by stepwise addition of 4.5 μL per well of bromo domain protein (50 mM HEPES, pH 7.5, 0.005% Tween20, 0.1% BSA, 50 mM NaCl, 45 nM His-Brd2(60-472) or 45 nM His-Brd3(20-477) or 45 nM His-Brd4(44-477) all proteins produced in-house) and 4.5 μL per well of peptide solution (50 mM HEPES, pH 7.5, 0.005% Tween20, 0.1% BSA, 50 mM NaCl, 60 nM acetyl-histone H4 (AcK 5, 8, 12, 16) (Biosyntan GmbH)). Reactions were incubated at 30° C. for 35 minutes. Subsequently 4.5 μL per well detection mix (50 mM HEPES, pH 7.5, 0.005% Tween20, 0.1% BSA, 50 mM NaCl, 3 nM Eu-labeled anti-His6 antibody, 21 nM streptavidin-allophycocyanin) were added. After minutes incubation at 30° C., plates were measured in a Perkin Elmer EnVision multilabel reader.
(§3) Test compounds were dissolved in DMSO (10 mM) and transferred into 1.4 mL flat bottom or V-shaped Matrix tubes carrying a unique 2D matrix. The stock solutions were stored at […] if not used immediately. For the test procedure the vials were defrosted and identified by a scanner whereby a working sheet was generated that guided the subsequent working steps. Compound dilutions were made in 96 well plates. This format enabled the assay of maximally […] at 8 concentrations (single points) including 4 reference compounds, if desired (known BET inhibitors from the prior art, for this and other assays of the type disclosed herein). The dilution protocol included the production of “pre-dilution plates”, “master plates” and “assay plates”.
(§4) Polypropylene 96-well plates were used as pre-dilution plates. […] All dilution steps were done on a HamiltonSTAR robot.
(§5) 30 μL of individual compound dilutions including standard compound and controls of the 4 “pre-dilution plates” were transferred into a 384-well “master plate” including the following concentrations 10000, […], 1000, 300, 100, 30, 10 and 3 μM, respectively in 90% of DMSO.
(§6) Identical “assay plates” were then prepared by pipetting 50 nL each of compound dilutions of the “master plates” into 384-well “assay plates” by means of a HummingBird 384-channel dispenser. These plates were used directly for the assay which was performed in a total volume of 13.55 μL.
(Time-resolved FRET reads energy transfer from a long-lived donor to a nearby acceptor.)

The next assay deals with His-Brd3(20-477) (Homo sapiens (Human), UniProt Q15059). Nature of the assay: TR-FRET in-vitro binding assay for BRD3. As to the method:
as §1, §2, §3, §4, §5, §6

Another assay addresses His-Brd2(60-472) (Homo sapiens (Human), UniProt P25440). Nature of the assay: TR-FRET in-vitro binding assay for BRD2. The protocol:
as §1, §2, §3, §4, §5, §6

The structures appear in SMILES notation.

Chain of His-Brd2(60-472) (P25440 60-472): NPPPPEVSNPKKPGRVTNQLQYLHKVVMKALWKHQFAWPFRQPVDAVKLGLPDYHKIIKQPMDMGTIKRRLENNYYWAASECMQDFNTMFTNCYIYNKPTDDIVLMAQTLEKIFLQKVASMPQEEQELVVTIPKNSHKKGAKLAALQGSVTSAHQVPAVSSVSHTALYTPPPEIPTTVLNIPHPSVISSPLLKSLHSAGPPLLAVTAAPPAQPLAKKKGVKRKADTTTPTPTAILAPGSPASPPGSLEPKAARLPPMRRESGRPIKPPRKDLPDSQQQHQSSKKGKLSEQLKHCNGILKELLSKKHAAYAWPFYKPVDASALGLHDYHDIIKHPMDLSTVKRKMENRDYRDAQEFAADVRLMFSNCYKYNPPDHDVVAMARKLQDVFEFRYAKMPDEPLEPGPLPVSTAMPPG
Chain of His-Brd3(20-477) (Q15059 20-477): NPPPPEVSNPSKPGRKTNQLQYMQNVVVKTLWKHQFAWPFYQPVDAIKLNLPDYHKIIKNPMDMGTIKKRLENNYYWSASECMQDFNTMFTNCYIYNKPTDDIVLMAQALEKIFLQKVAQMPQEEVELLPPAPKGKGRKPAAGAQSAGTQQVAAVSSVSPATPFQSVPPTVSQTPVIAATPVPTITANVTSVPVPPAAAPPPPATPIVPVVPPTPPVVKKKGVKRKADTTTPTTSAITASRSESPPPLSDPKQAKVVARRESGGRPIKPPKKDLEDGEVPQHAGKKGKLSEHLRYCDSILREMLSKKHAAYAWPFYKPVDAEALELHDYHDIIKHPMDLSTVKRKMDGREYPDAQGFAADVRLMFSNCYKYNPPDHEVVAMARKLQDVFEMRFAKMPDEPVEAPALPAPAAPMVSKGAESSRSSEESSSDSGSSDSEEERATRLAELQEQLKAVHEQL

Take `Cc1nn(C2CC2)c2c1C(c1ccc(Cl)cc1)N(c1cc(C)c(=O)n(C)c1)C2=O` (racemic) [Example 23, 4-(4-chlorophenyl)-1-cyclopropyl-5-(1,5-dimethyl-6-oxo-1,6-dihydropyridin-3-yl)-3-methyl-4,5-dihydropyrrolo[3,4-c]pyrazol-6(1H)-one]: the half-maximal inhibitory concentration (IC50) (as a rule, the concentration needed to halve the response being measured) at His-Brd4(44-477) is 0.066 µM.
The molecule `COc1ccc(Cn2nc3c(c2C)C(c2ccc(Cl)cc2)N(c2ccc(=O)n(C)c2)C3=O)cc1` (centres unmarked) [Example 1, 4-(4-chlorophenyl)-2-(4-methoxybenzyl)-3-methyl-5-(1-methyl-6-oxo-1,6-dihydropyridin-3-yl)-4,5-dihydropyrrolo[3,4-c]pyrazol-6(2H)-one] had an IC50 on His-Brd4(44-477) of 0.14 µM.
`Cc1[nH]nc2c1C(c1ccc(Cl)cc1)N(c1ccc(=O)n(C)c1)C2=O` (centres unmarked) [Example 2, 4-(4-chlorophenyl)-3-methyl-5-(1-methyl-6-oxo-1,6-dihydropyridin-3-yl)-4,5-dihydropyrrolo[3,4-c]pyrazol-6(2H)-one] had an IC50 at His-Brd4(44-477) of 0.17 µM.
Turning to `Cc1c2c(nn1C)C(=O)N(c1ccc(=O)n(C)c1)C2c1ccc(Cl)cc1` (centres unmarked) [Example 3, 4-(4-chlorophenyl)-2,3-dimethyl-5-(1-methyl-6-oxo-1,6-dihydropyridin-3-yl)-4,5-dihydropyrrolo[3,4-c]pyrazol-6(2H)-one], the IC50 is 0.52 µM on His-Brd3(20-477), 0.58 µM on His-Brd2(60-472) and 0.4 µM at His-Brd4(44-477).
On to `Cc1nn(C)c2c1C(c1ccc(Cl)cc1)N(c1ccc(=O)n(C)c1)C2=O` (centres unmarked) [Example 4, 4-(4-chlorophenyl)-1,3-dimethyl-5-(1-methyl-6-oxo-1,6-dihydropyridin-3-yl)-4,5-dihydropyrrolo[3,4-c]pyrazol-6(1H)-one], for which, on His-Brd4(44-477), the IC50 is 0.23 µM.
As for `Cc1c2c(nn1C)C(=O)N(c1cc(Cl)c(=O)n(C)c1)[C@H]2c1ccc(Cl)cc1` [Example 8, (S)-5-(5-chloro-1-methyl-6-oxo-1,6-dihydropyridin-3-yl)-4-(4-chlorophenyl)-2,3-dimethyl-4,5-dihydropyrrolo[3,4-c]pyrazol-6(2H)-one], the IC50 was determined as 27 µM at His-Brd3(20-477), 36 µM on His-Brd2(60-472) and 31 µM on His-Brd4(44-477).
On the same counts, the results for `Cn1cc(N2C(=O)c3n[nH]cc3C2c2ccc(Cl)cc2)cc(Cl)c1=O` (centres unmarked) [Example 9, 5-(5-chloro-1-methyl-6-oxo-1,6-dihydropyridin-3-yl)-4-(4-chlorophenyl)-4,5-dihydropyrrolo[3,4-c]pyrazol-6(2H)-one] are 0.18 µM, 0.21 µM and 0.17 µM.
With `Cn1cc2c(n1)C(=O)N(c1cc(Cl)c(=O)n(C)c1)C2c1ccc(Cl)cc1` (centres unmarked) [Example 10, 5-(5-chloro-1-methyl-6-oxo-1,6-dihydropyridin-3-yl)-4-(4-chlorophenyl)-2-methyl-4,5-dihydropyrrolo[3,4-c]pyrazol-6(2H)-one], the figures for the IC50 at His-Brd3(20-477), at His-Brd2(60-472) and at His-Brd4(44-477) were 0.13 µM, 0.15 µM and 0.15 µM, respectively.
In the case of `Cn1cc2c(n1)C(=O)N(c1cc(Cl)c(=O)n(C)c1)[C@@H]2c1ccc(Cl)cc1` [Example 11, (R)-5-(5-chloro-1-methyl-6-oxo-1,6-dihydropyridin-3-yl)-4-(4-chlorophenyl)-2-methyl-4,5-dihydropyrrolo[3,4-c]pyrazol-6(2H)-one], the half-inhibitory concentration (IC50) is 0.1 µM on His-Brd3(20-477), 0.14 µM at His-Brd2(60-472) and 0.13 µM at His-Brd4(44-477).
As to `Cn1cc2c(n1)C(=O)N(c1cc(Cl)c(=O)n(C)c1)[C@H]2c1ccc(Cl)cc1` [Example 12, (S)-5-(5-chloro-1-methyl-6-oxo-1,6-dihydropyridin-3-yl)-4-(4-chlorophenyl)-2-methyl-4,5-dihydropyrrolo[3,4-c]pyrazol-6(2H)-one], the IC50 at His-Brd3(20-477), on His-Brd2(60-472) and at His-Brd4(44-477) was over 37 µM throughout.
With `Cc1cc(N2C(=O)c3nn(C)cc3C2c2ccc(Cl)cc2)cn(C)c1=O` (centres unmarked) [Example 13, 4-(4-chlorophenyl)-5-(1,5-dimethyl-6-oxo-1,6-dihydropyridin-3-yl)-2-methyl-4,5-dihydropyrrolo[3,4-c]pyrazol-6(2H)-one], the IC50 was 0.15 µM on His-Brd3(20-477), 0.18 µM at His-Brd2(60-472) and 0.13 µM at His-Brd4(44-477).
The molecule `Cn1cc2c(n1)C(=O)N(c1cc(F)c(=O)n(C)c1)C2c1ccc(Cl)cc1` (centres unmarked) [Example 14, 4-(4-chlorophenyl)-5-(5-fluoro-1-methyl-6-oxo-1,6-dihydropyridin-3-yl)-2-methyl-4,5-dihydropyrrolo[3,4-c]pyrazol-6(2H)-one] displayed an IC50 on His-Brd4(44-477) of 0.46 µM.
As for `Cc1cc(N2C(=O)c3nn(C)cc3[C@@H]2c2ccc(Cl)cc2)cn(C)c1=O` [Example 15, (S)-4-(4-chlorophenyl)-5-(1,5-dimethyl-6-oxo-1,6-dihydropyridin-3-yl)-2-methyl-4,5-dihydropyrrolo[3,4-c]pyrazol-6(2H)-one], on His-Brd3(20-477), the IC50 was over 6.7 µM.
The molecule `Cc1cc(N2C(=O)c3nn(C4CC4)c(C)c3[C@@H]2c2ccc(Cl)cc2)cn(C)c1=O` [Example 22, (S)-4-(4-chlorophenyl)-2-cyclopropyl-5-(1,5-dimethyl-6-oxo-1,6-dihydropyridin-3-yl)-3-methyl-4,5-dihydropyrrolo[3,4-c]pyrazol-6(2H)-one] showed a half-maximal inhibitory concentration (IC50) on His-Brd2(60-472) of over 6.7 µM.
Turning to `Cc1c2c(nn1C)C(=O)N(c1ccc3nnc(C)n3c1)C2c1ccc(Cl)cc1` (centres unmarked) [Example 25, 4-(4-chlorophenyl)-2,3-dimethyl-5-(3-methyl-[1,2,4]triazolo[4,3-a]pyridin-6-yl)-4,5-dihydropyrrolo[3,4-c]pyrazol-6(2H)-one], the 50% inhibitory concentration (IC50) on His-Brd3(20-477) was 0.25 µM; at His-Brd2(60-472), 0.27 µM; at His-Brd4(44-477), 0.26 µM.
On to `Cc1cc(N2C(=O)c3nn(C)c(C)c3[C@@H]2c2ccc(Cl)cc2)cn(C)c1=O` [Example 29, (S)-4-(4-chlorophenyl)-5-(1,5-dimethyl-6-oxo-1,6-dihydropyridin-3-yl)-2,3-dimethyl-4,5-dihydropyrrolo[3,4-c]pyrazol-6(2H)-one], for which the 50% inhibitory concentration (IC50) came to 25 µM at His-Brd3(20-477), 28 µM at His-Brd2(60-472) and 31 µM at His-Brd4(44-477).
At His-Brd4(44-477), `Cc1cc(N2C(=O)c3nn(C)c(C)c3[C@H]2c2ccc(Cl)cc2)cn(C)c1=O` [Example 30, (R)-4-(4-chlorophenyl)-5-(1,5-dimethyl-6-oxo-1,6-dihydropyridin-3-yl)-2,3-dimethyl-4,5-dihydropyrrolo[3,4-c]pyrazol-6(2H)-one] came in with a half-maximal inhibitory concentration (IC50) of 0.031 µM.
Consider `Cc1c2c(nn1C)C(=O)N(c1cc(F)c(=O)n(C)c1)C2c1ccc(Cl)cc1` (centres unmarked) [Example 31, 4-(4-chlorophenyl)-5-(5-fluoro-1-methyl-6-oxo-1,6-dihydropyridin-3-yl)-2,3-dimethyl-4,5-dihydropyrrolo[3,4-c]pyrazol-6(2H)-one], for which the IC50 came to 0.47 µM on His-Brd3(20-477), 0.69 µM at His-Brd2(60-472) and 0.52 µM on His-Brd4(44-477).
For the molecule `Cc1c2c(nn1C)C(=O)N(c1ccc(=O)n(C)n1)C2c1ccc(Cl)cc1` (centres unmarked) [Example 32, 4-(4-chlorophenyl)-2,3-dimethyl-5-(1-methyl-6-oxo-1,6-dihydropyridazin-3-yl)-4,5-dihydropyrrolo[3,4-c]pyrazol-6(2H)-one], the IC50 on His-Brd3(20-477) stood at 0.89 µM; at His-Brd2(60-472), 1.2 µM; at His-Brd4(44-477), 0.66 µM.
Turning to `Cc1cc(N2C(=O)c3nn(C4CC4)cc3C2c2ccc(Cl)cc2)cn(C)c1=O` (centres unmarked) [Example 39, 4-(4-chlorophenyl)-2-cyclopropyl-5-(1,5-dimethyl-6-oxo-1,6-dihydropyridin-3-yl)-4,5-dihydropyrrolo[3,4-c]pyrazol-6(2H)-one], the 50% inhibitory concentration (IC50) is 0.091 µM on His-Brd3(20-477), 0.078 µM on His-Brd2(60-472) and 0.12 µM at His-Brd4(44-477).

The values are drawn from patent US8975417B2, “Pyrazolopyrrolidine derivatives and their use in the treatment of disease” (Novartis AG, priority 2013, dated 2015).
